Measurements taken from the NIST ThermoML archive (doi:10.1016/j.tca.2013.07.012).

Assay: xn = mol fraction of the nth substance listed
Settings: 101 kPa, Liquid, Vibrating tube method

OCC(O)CO [glycerol] + O
Settings | mass density [kg/m3]
274.15 K, x1 = 0.00209 | 1002.52
274.15 K, x1 = 0.00439 | 1005.4
274.15 K, x1 = 0.0051 | 1006.27
274.15 K, x1 = 0.00657 | 1008.08
274.15 K, x1 = 0.01072 | 1013.09
274.15 K, x1 = 0.01633 | 1019.67
275.15 K, x1 = 0.00209 | 1002.55
275.15 K, x1 = 0.00439 | 1005.42
275.15 K, x1 = 0.0051 | 1006.29
275.15 K, x1 = 0.00657 | 1008.09
275.15 K, x1 = 0.01072 | 1013.08
275.15 K, x1 = 0.01633 | 1019.63
276.15 K, x1 = 0.00209 | 1002.56
276.15 K, x1 = 0.00439 | 1005.42
276.15 K, x1 = 0.0051 | 1006.29
276.15 K, x1 = 0.00657 | 1008.08
276.15 K, x1 = 0.01072 | 1013.06
276.15 K, x1 = 0.01633 | 1019.58
277.15 K, x1 = 0.00209 | 1002.56
277.15 K, x1 = 0.00439 | 1005.41
277.15 K, x1 = 0.0051 | 1006.27
277.15 K, x1 = 0.00657 | 1008.06
277.15 K, x1 = 0.01072 | 1013.02
277.15 K, x1 = 0.01633 | 1019.51
278.15 K, x1 = 0.00209 | 1002.54
278.15 K, x1 = 0.00439 | 1005.38
278.15 K, x1 = 0.0051 | 1006.24
278.15 K, x1 = 0.00657 | 1008.02
278.15 K, x1 = 0.01072 | 1012.95
278.15 K, x1 = 0.01633 | 1019.43
278.15 K, x1 = 0.03504 | 1039.54
278.15 K, x1 = 0.05086 | 1054.94
278.15 K, x1 = 0.06775 | 1069.92
278.15 K, x1 = 0.1127 | 1103.61
278.15 K, x1 = 0.1559 | 1129.3
278.15 K, x1 = 0.206 | 1153.22
278.15 K, x1 = 0.256 | 1172.3
278.15 K, x1 = 0.3311 | 1194.33
278.15 K, x1 = 0.4012 | 1210
278.15 K, x1 = 0.4907 | 1225.46
278.15 K, x1 = 0.5828 | 1237.72
278.15 K, x1 = 0.6857 | 1248.63
278.15 K, x1 = 0.7494 | 1254.28
278.15 K, x1 = 0.8101 | 1259.12
278.15 K, x1 = 0.8528 | 1262.2
278.15 K, x1 = 0.882 | 1264.21
278.15 K, x1 = 0.9143 | 1266.2
278.15 K, x1 = 0.9408 | 1267.71
278.15 K, x1 = 0.9578 | 1268.67
278.15 K, x1 = 0.9792 | 1269.86
278.15 K, x1 = 0.9895 | 1270.39
278.15 K, x1 = 1 | 1270.87
279.15 K, x1 = 0.00209 | 1002.51
279.15 K, x1 = 0.00439 | 1005.34
279.15 K, x1 = 0.0051 | 1006.19
279.15 K, x1 = 0.00657 | 1007.97
279.15 K, x1 = 0.01072 | 1012.88
279.15 K, x1 = 0.01633 | 1019.34
280.15 K, x1 = 0.00209 | 1002.46
280.15 K, x1 = 0.00439 | 1005.28
280.15 K, x1 = 0.0051 | 1006.13
280.15 K, x1 = 0.00657 | 1007.91
280.15 K, x1 = 0.01072 | 1012.8
280.15 K, x1 = 0.01633 | 1019.23
281.15 K, x1 = 0.00209 | 1002.4
281.15 K, x1 = 0.00439 | 1005.21
281.15 K, x1 = 0.0051 | 1006.06
281.15 K, x1 = 0.00657 | 1007.82
281.15 K, x1 = 0.01072 | 1012.7
281.15 K, x1 = 0.01633 | 1019.12
282.15 K, x1 = 0.00209 | 1002.33
282.15 K, x1 = 0.00439 | 1005.13
282.15 K, x1 = 0.0051 | 1005.97
282.15 K, x1 = 0.00657 | 1007.73
282.15 K, x1 = 0.01072 | 1012.6
282.15 K, x1 = 0.01633 | 1018.99
283.15 K, x1 = 0.00209 | 1002.24
283.15 K, x1 = 0.00439 | 1005.03
283.15 K, x1 = 0.0051 | 1005.87
283.15 K, x1 = 0.00657 | 1007.62
283.15 K, x1 = 0.01072 | 1012.47
283.15 K, x1 = 0.01633 | 1018.85
288.15 K, x1 = 0.00209 | 1001.6
288.15 K, x1 = 0.00439 | 1004.35
288.15 K, x1 = 0.0051 | 1005.18
288.15 K, x1 = 0.00657 | 1006.91
288.15 K, x1 = 0.01072 | 1011.69
288.15 K, x1 = 0.01633 | 1017.97
288.15 K, x1 = 0.03504 | 1037.45
288.15 K, x1 = 0.05086 | 1052.38
288.15 K, x1 = 0.06775 | 1066.9
288.15 K, x1 = 0.1127 | 1099.65
288.15 K, x1 = 0.1559 | 1124.77
288.15 K, x1 = 0.206 | 1148.15
288.15 K, x1 = 0.256 | 1166.85
288.15 K, x1 = 0.3311 | 1188.67
288.15 K, x1 = 0.4012 | 1204.31
288.15 K, x1 = 0.4907 | 1219.67
288.15 K, x1 = 0.5828 | 1231.79
288.15 K, x1 = 0.6857 | 1242.54
288.15 K, x1 = 0.7494 | 1248.04
288.15 K, x1 = 0.8101 | 1252.82
288.15 K, x1 = 0.8528 | 1255.81
288.15 K, x1 = 0.882 | 1257.79
288.15 K, x1 = 0.9143 | 1259.78
288.15 K, x1 = 0.9408 | 1261.27
288.15 K, x1 = 0.9578 | 1262.21
288.15 K, x1 = 0.9792 | 1263.39
288.15 K, x1 = 0.9895 | 1263.91
288.15 K, x1 = 1 | 1264.4
293.15 K, x1 = 0.00209 | 1000.68
293.15 K, x1 = 0.00439 | 1003.39
293.15 K, x1 = 0.0051 | 1004.21
293.15 K, x1 = 0.00657 | 1005.92
293.15 K, x1 = 0.01072 | 1010.64
293.15 K, x1 = 0.01633 | 1016.84
293.15 K, x1 = 0.03504 | 1036.06
293.15 K, x1 = 0.05086 | 1050.82
293.15 K, x1 = 0.06775 | 1065.15
293.15 K, x1 = 0.1127 | 1097.5
293.15 K, x1 = 0.1559 | 1122.35
293.15 K, x1 = 0.206 | 1145.51
293.15 K, x1 = 0.256 | 1164.09
293.15 K, x1 = 0.3311 | 1185.75
293.15 K, x1 = 0.4012 | 1201.28
293.15 K, x1 = 0.4907 | 1216.63
293.15 K, x1 = 0.5828 | 1228.62
293.15 K, x1 = 0.6857 | 1239.29
293.15 K, x1 = 0.7494 | 1244.78
293.15 K, x1 = 0.8101 | 1249.51
293.15 K, x1 = 0.8528 | 1252.47
293.15 K, x1 = 0.882 | 1254.43
293.15 K, x1 = 0.9143 | 1256.38
293.15 K, x1 = 0.9408 | 1257.87
293.15 K, x1 = 0.9578 | 1258.81
293.15 K, x1 = 0.9792 | 1259.97
293.15 K, x1 = 0.9895 | 1260.49
293.15 K, x1 = 1 | 1260.99
298.15 K, x1 = 0.00209 | 999.49
